Test results: PubChem BioAssay AID1259407 (Chemical Carcinogenesis Research Information System (CCRIS), 2018)
Active and inactive are the calls of the source. The rule behind the calls is not given here.

Tested on: CCRIS mutagenicity, Ames/micronucleus/aberration tests
Experiment: CCRIS mutagenicity studies
From the text: The CCRIS database contains chemical records with carcinogenicity, mutagenicity, tumor promotion, and tumor inhibition test results. It was developed by the National Cancer Institute (NCI). Data are derived from studies cited in primary journals, current awareness tools, NCI reports, and other sources. Test results have been reviewed by experts in carcinogenesis and mutagenesis.
CCRIS provides historical information from the years 1985 - 2011. It is no longer updated.
This is an archive assay for CCRIS mutagenicity studies.

[1] = Test System: AMES SALMONELLA TYPHIMURIUM, Strain/Indicator: TA100, Metabolic Activation: NONE, Method: PREINCUBATION
[2] = Test System: AMES SALMONELLA TYPHIMURIUM, Strain/Indicator: TA98, Metabolic Activation: HAMSTER, LIVER, S-9, AROCLOR 1254 (10%), Method: PREINCUBATION
[3] = Test System: AMES SALMONELLA TYPHIMURIUM, Strain/Indicator: TA98, Metabolic Activation: NONE, Method: PREINCUBATION
[4] = Test System: AMES SALMONELLA TYPHIMURIUM, Strain/Indicator: TA98, Metabolic Activation: RAT, LIVER, S-9, AROCLOR 1254 (10%), Method: PREINCUBATION
[5] = Test System: AMES SALMONELLA TYPHIMURIUM, Strain/Indicator: TA100, Metabolic Activation: HAMSTER, LIVER, S-9, AROCLOR 1254 (10%), Method: PREINCUBATION
[6] = Test System: AMES SALMONELLA TYPHIMURIUM, Strain/Indicator: TA100, Metabolic Activation: RAT, LIVER, S-9, AROCLOR 1254 (10%), Method: PREINCUBATION
[7] = Test System: AMES SALMONELLA TYPHIMURIUM, Strain/Indicator: TA1535, Metabolic Activation: HAMSTER, LIVER, S-9, AROCLOR 1254 (10%), Method: PREINCUBATION
[8] = Test System: AMES SALMONELLA TYPHIMURIUM, Strain/Indicator: TA1535, Metabolic Activation: NONE, Method: PREINCUBATION
[9] = Test System: AMES SALMONELLA TYPHIMURIUM, Strain/Indicator: TA1535, Metabolic Activation: RAT, LIVER, S-9, AROCLOR 1254 (10%), Method: PREINCUBATION
[10] = Test System: AMES SALMONELLA TYPHIMURIUM, Strain/Indicator: TA98, Metabolic Activation: NONE, Method: STANDARD PLATE
[11] = Test System: AMES SALMONELLA TYPHIMURIUM, Strain/Indicator: TA100, Metabolic Activation: NONE, Method: STANDARD PLATE

SMILES: CC(=O)OCC12OOC1(C)c1ccccc1O2 (stereo unspecified)
- mutagenic call [1]: active; positive

SMILES: COc1cc2nc3occc3c(OC)c2cc1OC
- mutagenic call (Test System: AMES SALMONELLA TYPHIMURIUM, Strain/Indicator: TA98, Metabolic Activation: RAT, LIVER, S-9, PHENOBARBITAL, Method: STANDARD PLATE): active; positive
- mutagenic call (Test System: AMES SALMONELLA TYPHIMURIUM, Strain/Indicator: TA100, Metabolic Activation: RAT, LIVER, S-9, PHENOBARBITAL, Method: STANDARD PLATE): active; positive

SMILES: CCC(C)(C)c1ccc(O)cc1
- mutagenic call (Test System: AMES SALMONELLA TYPHIMURIUM, Strain/Indicator: TA97, Metabolic Activation: HAMSTER, LIVER, S-9, AROCLOR 1254 (10%), Method: PREINCUBATION): inactive; negative
- mutagenic call (Test System: AMES SALMONELLA TYPHIMURIUM, Strain/Indicator: TA97, Metabolic Activation: HAMSTER, LIVER, S-9, AROCLOR 1254 (30%), Method: PREINCUBATION): inactive; negative
- mutagenic call (Test System: AMES SALMONELLA TYPHIMURIUM, Strain/Indicator: TA97, Metabolic Activation: NONE, Method: PREINCUBATION): inactive; negative
- mutagenic call (Test System: AMES SALMONELLA TYPHIMURIUM, Strain/Indicator: TA97, Metabolic Activation: RAT, LIVER, S-9, AROCLOR 1254 (10%), Method: PREINCUBATION): inactive; negative
- mutagenic call (Test System: AMES SALMONELLA TYPHIMURIUM, Strain/Indicator: TA97, Metabolic Activation: RAT, LIVER, S-9, AROCLOR 1254 (30%), Method: PREINCUBATION): inactive; negative
- mutagenic call [2]: inactive; negative
- mutagenic call (Test System: AMES SALMONELLA TYPHIMURIUM, Strain/Indicator: TA98, Metabolic Activation: HAMSTER, LIVER, S-9, AROCLOR 1254 (30%), Method: PREINCUBATION): inactive; negative
- mutagenic call [3]: inactive; negative
- mutagenic call [4]: inactive; negative
- mutagenic call (Test System: AMES SALMONELLA TYPHIMURIUM, Strain/Indicator: TA98, Metabolic Activation: RAT, LIVER, S-9, AROCLOR 1254 (30%), Method: PREINCUBATION): inactive; negative
- mutagenic call [5]: inactive; negative
- mutagenic call (Test System: AMES SALMONELLA TYPHIMURIUM, Strain/Indicator: TA100, Metabolic Activation: HAMSTER, LIVER, S-9, AROCLOR 1254 (30%), Method: PREINCUBATION): inactive; negative
- mutagenic call [1]: inactive; negative
- mutagenic call [6]: inactive; negative
- mutagenic call (Test System: AMES SALMONELLA TYPHIMURIUM, Strain/Indicator: TA100, Metabolic Activation: RAT, LIVER, S-9, AROCLOR 1254 (30%), Method: PREINCUBATION): inactive; negative
- mutagenic call [7]: inactive; negative
- mutagenic call (Test System: AMES SALMONELLA TYPHIMURIUM, Strain/Indicator: TA1535, Metabolic Activation: HAMSTER, LIVER, S-9, AROCLOR 1254 (30%), Method: PREINCUBATION): inactive; negative
- mutagenic call [8]: inactive; negative
- mutagenic call [9]: inactive; negative
- mutagenic call (Test System: AMES SALMONELLA TYPHIMURIUM, Strain/Indicator: TA1535, Metabolic Activation: RAT, LIVER, S-9, AROCLOR 1254 (30%), Method: PREINCUBATION): inactive; negative

SMILES: CC(=O)N(O)c1ccc2ccc3cccc4ccc1c2c34
- mutagenic call (Test System: AMES SALMONELLA TYPHIMURIUM, Strain/Indicator: TA98(1,8-DNP6), Metabolic Activation: NONE, Method: STANDARD PLATE): active; positive
- mutagenic call (Test System: AMES SALMONELLA TYPHIMURIUM, Strain/Indicator: TA98(1,8-DNP6), Metabolic Activation: RAT, LIVER, S-9, AROCLOR 1254, Method: STANDARD PLATE): active; positive
- mutagenic call (Test System: AMES SALMONELLA TYPHIMURIUM, Strain/Indicator: TA98(NR), Metabolic Activation: NONE, Method: STANDARD PLATE): active; positive
- mutagenic call (Test System: AMES SALMONELLA TYPHIMURIUM, Strain/Indicator: TA98(NR), Metabolic Activation: RAT, LIVER, S-9, AROCLOR 1254, Method: STANDARD PLATE): active; positive
- mutagenic call [10]: active; positive
- mutagenic call (Test System: AMES SALMONELLA TYPHIMURIUM, Strain/Indicator: TA98, Metabolic Activation: RAT, LIVER, S-9, AROCLOR 1254, Method: STANDARD PLATE): active; positive

SMILES: C=C(C)C(=O)OCC(C)C
- mutagenic call [2]: inactive; negative
- mutagenic call [3]: inactive; negative
- mutagenic call [4]: inactive; negative
- mutagenic call [5]: inactive; negative
- mutagenic call [1]: inactive; negative
- mutagenic call [6]: inactive; negative
- mutagenic call [7]: inactive; negative
- mutagenic call [8]: inactive; negative
- mutagenic call [9]: inactive; negative
- mutagenic call (Test System: AMES SALMONELLA TYPHIMURIUM, Strain/Indicator: TA1537, Metabolic Activation: HAMSTER, LIVER, S-9, AROCLOR 1254 (10%), Method: PREINCUBATION): inactive; negative
- mutagenic call (Test System: AMES SALMONELLA TYPHIMURIUM, Strain/Indicator: TA1537, Metabolic Activation: NONE, Method: PREINCUBATION): inactive; negative
- mutagenic call (Test System: AMES SALMONELLA TYPHIMURIUM, Strain/Indicator: TA1537, Metabolic Activation: RAT, LIVER, S-9, AROCLOR 1254 (10%), Method: PREINCUBATION): inactive; negative

SMILES: Nc1ccc(Cc2ccc(NO)c(Cl)c2)cc1Cl
- mutagenic call [3]: active; positive
- mutagenic call [1]: active; positive

SMILES: COc1cccc2c1C(=O)c1c(O)c3c(c(O)c1C2=O)C[C@@](O)(C(C)=NNC(=O)c1ccccc1)C[C@@H]3O[C@H]1C[C@H](N)[C@H](O)[C@H](C)O1
- mutagenic call (Test System: AMES SALMONELLA TYPHIMURIUM, Strain/Indicator: TA97, Metabolic Activation: NONE, Method: STANDARD PLATE): inactive; negative
- mutagenic call [10]: active; positive
- mutagenic call [11]: inactive; negative
- mutagenic call (Test System: AMES SALMONELLA TYPHIMURIUM, Strain/Indicator: TA104, Metabolic Activation: NONE, Method: STANDARD PLATE): inactive; negative
- mutagenic call (Test System: AMES SALMONELLA TYPHIMURIUM, Strain/Indicator: TA2637, Metabolic Activation: NONE, Method: STANDARD PLATE): active; positive

SMILES: CCC(C)OS(C)(=O)=O (stereo unspecified)
- mutagenic call (End Point: IN VITRO MICRONUCLEUS, Test System: MOUSE LYMPHOMA L5178Y CELLS, Metabolic Activation: NONE): active; positive
- mutagenic call (End Point: IN VITRO MICRONUCLEUS, Test System: MOUSE LYMPHOMA L5178Y CELLS, Metabolic Activation: RAT, LIVER, S-9): active; positive
- mutagenic call [10]: active; positive
- mutagenic call (Test System: AMES SALMONELLA TYPHIMURIUM, Strain/Indicator: TA98, Metabolic Activation: RAT, LIVER, S-9, Method: STANDARD PLATE): active; positive
- mutagenic call [11]: active; positive
- mutagenic call (Test System: AMES SALMONELLA TYPHIMURIUM, Strain/Indicator: TA100, Metabolic Activation: RAT, LIVER, S-9, Method: STANDARD PLATE): active; positive
- mutagenic call (Test System: AMES SALMONELLA TYPHIMURIUM, Strain/Indicator: TA1535, Metabolic Activation: NONE, Method: STANDARD PLATE): active; positive
- mutagenic call (Test System: CHINESE HAMSTER V-79, Strain/Indicator: V-79/6-THIOGUANINE, Metabolic Activation: NONE): active; positive
